Among the data in ChEMBL document CHEMBL1649271, “In vitro sensitivity testing of Leishmania clinical field isolates: preconditioning of promastigotes enhances infectivity for macrophage host cells” (Antimicrob Agents Chemother, 2009) are IC50 and Ratio IC50 values, retold here.

Assay [1] concerns Leishmania donovani. In words: Antileishmanial activity against Leishmania donovani BPK043 amastigotes infected in Swiss mouse primary peritoneal mouse macrophages assessed as reduction of total parasite burden after 5 days. The assay is classed as functional, organism-based.
Assay [2] deals with Leishmania donovani. In words: Antileishmanial activity against Leishmania donovani BPK091 amastigotes infected in Swiss mouse primary peritoneal mouse macrophages assessed as reduction of total parasite burden after 5 days. The class given is functional, organism-based.
For assay [3], the system named is Leishmania donovani. Description: Antileishmanial activity against Leishmania donovani BPK178 amastigotes infected in Swiss mouse primary peritoneal mouse macrophages assessed as reduction of total parasite burden after 5 days. The assay is classed as functional, organism-based.
The test system of assay [4] is Leishmania donovani. In words: Antileishmanial activity against Leishmania donovani BPK206 amastigotes infected in Swiss mouse primary peritoneal mouse macrophages assessed as reduction of total parasite burden after 5 days. The class given is functional, organism-based.
The subject of assay [5] is Leishmania donovani. In words: Antileishmanial activity against Leishmania donovani BPK206cl amastigotes infected in Swiss mouse primary peritoneal mouse macrophages assessed as reduction of total parasite burden after 5 days. The class given is functional, organism-based.
The subject of assay [6] is Leishmania donovani. Description: Antileishmanial activity against Leishmania donovani BPK274 amastigotes infected in Swiss mouse primary peritoneal mouse macrophages assessed as reduction of total parasite burden after 5 days. The class given is functional, organism-based.
The test system of assay [7] is Leishmania donovani. In words: Antileishmanial activity against Leishmania donovani BPK294 amastigotes infected in Swiss mouse primary peritoneal mouse macrophages assessed as reduction of total parasite burden after 5 days. The assay is classed as functional, organism-based.
Assay [8] deals with Leishmania donovani. In words: Antileishmanial activity against Leishmania donovani BPK298 amastigotes infected in Swiss mouse primary peritoneal mouse macrophages assessed as reduction of total parasite burden after 5 days. The assay is classed as functional, organism-based.
Assay [9] has as its system Leishmania donovani. Description: Antileishmanial activity against Leishmania donovani BPK177 amastigotes infected in Swiss mouse primary peritoneal mouse macrophages assessed as reduction of total parasite burden after 5 days. The assay is classed as functional, organism-based.
The test system of assay [10] is Leishmania donovani. In words: Antileishmanial activity against Leishmania donovani BPK190 amastigotes infected in Swiss mouse primary peritoneal mouse macrophages assessed as reduction of total parasite burden after 5 days. The class given is functional, organism-based.
The test system of assay [11] is Leishmania donovani. In words: Antileishmanial activity against Leishmania donovani BPK190cl amastigotes infected in Swiss mouse primary peritoneal mouse macrophages assessed as reduction of total parasite burden after 5 days. The assay is classed as functional, organism-based.
Assay [12] deals with Leishmania guyanensis. In words: Antileishmanial activity against Leishmania guyanensis PER106 amastigotes infected in Swiss mouse primary peritoneal mouse macrophages assessed as reduction of total parasite burden after 5 days. The assay is classed as functional, organism-based.
Assay [13] has as its system Leishmania guyanensis. In words: Antileishmanial activity against Leishmania guyanensis PER008 amastigotes infected in Swiss mouse primary peritoneal mouse macrophages assessed as reduction of total parasite burden after 5 days. The assay is classed as functional, organism-based.
Assay [14] deals with Leishmania guyanensis. Description: Antileishmanial activity against Leishmania guyanensis PER054 amastigotes infected in Swiss mouse primary peritoneal mouse macrophages assessed as reduction of total parasite burden after 5 days. The assay is classed as functional, organism-based.
Assay [15] has as its system Leishmania guyanensis. In words: Antileishmanial activity against Leishmania guyanensis PER072 amastigotes infected in Swiss mouse primary peritoneal mouse macrophages assessed as reduction of total parasite burden after 5 days. The assay is classed as functional, organism-based.
Assay [16] concerns Leishmania guyanensis. Description: Antileishmanial activity against Leishmania guyanensis PER080 amastigotes infected in Swiss mouse primary peritoneal mouse macrophages assessed as reduction of total parasite burden after 5 days. The assay is classed as functional, organism-based.
In assay [17] the test system is Leishmania braziliensis. In words: Antileishmanial activity against Leishmania braziliensis PER002cl amastigotes infected in Swiss mouse primary peritoneal mouse macrophages assessed as reduction of total parasite burden after 5 days. The assay is classed as functional, organism-based.
The test system of assay [18] is Leishmania braziliensis. Description: Antileishmanial activity against Leishmania braziliensis PER005cl amastigotes infected in Swiss mouse primary peritoneal mouse macrophages assessed as reduction of total parasite burden after 5 days. The class given is functional, organism-based.
In assay [19] the test system is Leishmania donovani. In words: Activity index, ratio of IC50 for Leishmania donovani BPK091 to IC50 for Leishmania donovani BPK043. The assay is classed as functional, organism-based.
The subject of assay [20] is Leishmania donovani. In words: Activity index, ratio of IC50 for Leishmania donovani BPK178 to IC50 for Leishmania donovani BPK043. The assay is classed as functional, organism-based.
In assay [21] the test system is Leishmania donovani. Description: Activity index, ratio of IC50 for Leishmania donovani BPK206 to IC50 for Leishmania donovani BPK043. The class given is functional, organism-based.
Assay [22] concerns Leishmania donovani. Description: Activity index, ratio of IC50 for Leishmania donovani BPK206cl to IC50 for Leishmania donovani BPK043. The assay is classed as functional, organism-based.
Assay [23] concerns Leishmania donovani. In words: Activity index, ratio of IC50 for Leishmania donovani BPK274 to IC50 for Leishmania donovani BPK043. The assay is classed as functional, organism-based.
For assay [24], the system named is Leishmania donovani. Description: Activity index, ratio of IC50 for Leishmania donovani BPK294 to IC50 for Leishmania donovani BPK043. The class given is functional, organism-based.
Assay [25] deals with Leishmania donovani. In words: Activity index, ratio of IC50 for Leishmania donovani BPK298 to IC50 for Leishmania donovani BPK043. The assay is classed as functional, organism-based.
In assay [26] the test system is Leishmania donovani. In words: Activity index, ratio of IC50 for Leishmania donovani BPK177 to IC50 for Leishmania donovani BPK043. The assay is classed as functional, organism-based.
In assay [27] the test system is Leishmania donovani. Description: Activity index, ratio of IC50 for Leishmania donovani BPK190 to IC50 for Leishmania donovani BPK043. The assay is classed as functional, organism-based.
Assay [28] relates to Leishmania donovani. Description: Activity index, ratio of IC50 for Leishmania donovani BPK190cl to IC50 for Leishmania donovani BPK043. The class given is functional, organism-based.
The subject of assay [29] is Leishmania guyanensis. In words: Activity index, ratio of IC50 for Leishmania guyanensis PER008 to IC50 for Leishmania guyanensis PER106. The assay is classed as functional, organism-based.
Assay [30] concerns Leishmania guyanensis. Description: Activity index, ratio of IC50 for Leishmania guyanensis PER054 to IC50 for Leishmania guyanensis PER106. The class given is functional, organism-based.
The test system of assay [31] is Leishmania guyanensis. In words: Activity index, ratio of IC50 for Leishmania guyanensis PER072 to IC50 for Leishmania guyanensis PER106. The class given is functional, organism-based.
Assay [32] concerns Leishmania guyanensis. In words: Activity index, ratio of IC50 for Leishmania guyanensis PER080 to IC50 for Leishmania guyanensis PER106. The class given is functional, organism-based.
Assay [33] in a line: Activity index, ratio of IC50 for Leishmania braziliensis PER002cl to IC50 for Leishmania guyanensis PER106. The assay is classed as functional.
Assay [34] in a line: Activity index, ratio of IC50 for Leishmania braziliensis PER005cl to IC50 for Leishmania guyanensis PER106. The class given is functional.

In the case of `CCCCCCCCCCCCCCCCOP(=O)([O-])OCC[N+](C)(C)C` [MILTEFOSINE], the IC50 in the assay with Leishmania donovani [1] (Leishmania donovani, BPK043, 120 h, read-out: IC50) was found to be 1.5 µM; with Leishmania donovani [2] (Leishmania donovani, BPK091, 120 h, read-out: IC50) it was 3.2 µM; with Leishmania donovani [3] (Leishmania donovani, BPK178, 120 h, read-out: IC50), 5.5 µM; in the assay on Leishmania donovani [4] (Leishmania donovani, BPK206, 120 h, read-out: IC50) it was 4 µM; in the assay with Leishmania donovani [5] (Leishmania donovani, BPK206cl, 120 h, read-out: IC50), 2 µM; in the assay on Leishmania donovani [6] (Leishmania donovani, BPK274, 120 h, read-out: IC50), 7.1 µM. Moreover, the IC50 worked out at 3 µM in the assay on Leishmania donovani [7] (Leishmania donovani, BPK294, 120 h, read-out: IC50); 3.4 µM with Leishmania donovani [8] (Leishmania donovani, BPK298, 120 h, read-out: IC50); 2 µM in the assay with Leishmania donovani [9] (Leishmania donovani, BPK177, 120 h, read-out: IC50); 4.5 µM with Leishmania donovani [10] (Leishmania donovani, BPK190, 120 h, read-out: IC50); 3 µM with Leishmania donovani [11] (Leishmania donovani, BPK190cl, 120 h, read-out: IC50); 10 µM in the assay with Leishmania guyanensis [12] (Leishmania guyanensis, PER106, 120 h, read-out: IC50). For the same compound, the IC50 came to 5 µM with Leishmania guyanensis [13] (Leishmania guyanensis, PER008, 120 h, read-out: IC50); 9.5 µM with Leishmania guyanensis [14] (Leishmania guyanensis, PER054, 120 h, read-out: IC50); 10 µM in the assay with Leishmania guyanensis [15] (Leishmania guyanensis, PER072, 120 h, read-out: IC50); 7.5 µM in the assay with Leishmania guyanensis [16] (Leishmania guyanensis, PER080, 120 h, read-out: IC50); 10.3 µM in the assay with Leishmania braziliensis [17] (Leishmania braziliensis, PER002cl, 120 h, read-out: IC50); 10 µM in the assay with Leishmania braziliensis [18] (Leishmania braziliensis, PER005cl, 120 h, read-out: IC50).

As to “POTASSIUM ANTIMONYL TARTRATE TRIHYDRATE [listing 1 of 2 here]”, the concentration for half-maximal inhibition (IC50) turned out to be 6 µg/mL in the assay with Leishmania donovani [1]; 24.2 µg/mL in the assay with Leishmania donovani [2]; 21.8 µg/mL with Leishmania donovani [3]; 11 µg/mL in the assay on Leishmania donovani [4]; 5 µg/mL with Leishmania donovani [5]; 16.2 µg/mL with Leishmania donovani [6]. The IC50 in the assay with Leishmania donovani [7] worked out at 6 µg/mL; with Leishmania donovani [8] it was 12 µg/mL; in the assay with Leishmania donovani [9] it was 32 µg/mL; in the assay on Leishmania donovani [10], 27.3 µg/mL; with Leishmania donovani [11] it was 24 µg/mL; in the assay with Leishmania guyanensis [12] it was 12 µg/mL. Moreover, the 50% inhibitory concentration (IC50) in the assay with Leishmania guyanensis [13] turned out to be 18 µg/mL; with Leishmania guyanensis [14], 18 µg/mL; in the assay on Leishmania guyanensis [15] it was 19 µg/mL; with Leishmania guyanensis [16], 14.5 µg/mL; with Leishmania braziliensis [17], 13.5 µg/mL; in the assay with Leishmania braziliensis [18], 25 µg/mL.

For the compound “POTASSIUM ANTIMONYL TARTRATE TRIHYDRATE [listing 2 of 2 here]”, the Ratio IC50 in the assay with Leishmania donovani [19] was 3.9; in the assay on Leishmania donovani [20], 3.6; with Leishmania donovani [21], 1.8; in the assay on Leishmania donovani [22] it was 0.8; in the assay on Leishmania donovani [23] it was 2.7; with Leishmania donovani [24] it was 1. Besides, the Ratio IC50 was found to be 2 with Leishmania donovani [25]; 5.3 with Leishmania donovani [26]; 4.5 in the assay on Leishmania donovani [27]; 4 with Leishmania donovani [28]; 1.6 in the assay with Leishmania guyanensis [29]; 1.6 with Leishmania guyanensis [30]. The Ratio IC50 in the assay on Leishmania guyanensis [31] was 1.6; in the assay with Leishmania guyanensis [32] it was 1.4; in assay [33], 1.3; in assay [34], 2.4.

sodium stibogluconate: the Ratio IC50 in the assay with Leishmania donovani [19] was determined as 3.2; in the assay with Leishmania donovani [20], 3.1; with Leishmania donovani [21], 3.6; in the assay with Leishmania donovani [22], 5.5; in the assay with Leishmania donovani [23], 3.2; with Leishmania donovani [24] it was 1.5. In addition, the Ratio IC50 with Leishmania donovani [25] was found to be 1.9; in the assay on Leishmania donovani [26], 6.6; in the assay on Leishmania donovani [27], 6.6; in the assay on Leishmania donovani [28], 4.2; with Leishmania guyanensis [29], 3.2; in the assay on Leishmania guyanensis [30] it was 4. The Ratio IC50 is 6 in the assay on Leishmania guyanensis [31], 2.5 in the assay with Leishmania guyanensis [32], 4.5 in [33] and 5.8 in assay [34].

The term IC50 denotes the concentration that inhibits the measured activity by half.
